According to article PMC6749521, “The Effect of Flavonoid Aglycones on the CYP1A2, CYP2A6, CYP2C8 and CYP2D6 Enzymes Activity” (Molecules, 2019):

Legend:
[1] = biological target: T1, CYP1A2 (Homo sapiens, UniProt P05177); test: CYP1A2 enzyme activity, phenacetin O-deethylation (MDI, TDI, DI assays), recombinant baculosomes
T1 sequence (P05177 1-516): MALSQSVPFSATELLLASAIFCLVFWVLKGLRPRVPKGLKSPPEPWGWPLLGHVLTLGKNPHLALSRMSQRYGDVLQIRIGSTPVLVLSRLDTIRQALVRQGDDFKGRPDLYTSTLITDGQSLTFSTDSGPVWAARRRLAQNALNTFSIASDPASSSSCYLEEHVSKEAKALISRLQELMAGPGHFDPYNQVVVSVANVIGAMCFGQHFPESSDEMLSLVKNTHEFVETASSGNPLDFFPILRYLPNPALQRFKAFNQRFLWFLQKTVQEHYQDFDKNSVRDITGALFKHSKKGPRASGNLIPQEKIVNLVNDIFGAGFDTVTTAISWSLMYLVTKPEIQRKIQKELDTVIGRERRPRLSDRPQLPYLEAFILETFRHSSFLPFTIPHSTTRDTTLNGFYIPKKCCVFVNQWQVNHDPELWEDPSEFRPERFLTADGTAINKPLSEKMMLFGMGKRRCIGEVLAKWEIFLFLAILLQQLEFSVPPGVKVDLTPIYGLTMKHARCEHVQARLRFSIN
Description: (§1) The recombinant baculosomes with hyperexpressed cytochromes P450 (1A2, 2A6, 2C8, and 2D6) and coexpressed NADPH cytochrome P450 reductase and cytochrome b5 were used as a source of enzyme. Baculosomes were commercially obtained from Thermo Fisher Scientific (Waltham, MA, USA), and all other chemicals from Sigma-Aldrich if not otherwise indicated. A 1.0 M solution phosphate buffer of pH 7.4 was prepared in house. NADPH generating system was prepared of 0.1 M glucose-6-phosphate, 10 mg mL^−1 NADP^+, and 1000 IU mL^−1 glucose-6-phosphate dehydrogenase in ratio 100:50:2 (v/v/v).
Phenacetine O-deethylation was used as a marker reaction for monitoring CYP1A2 enzyme activity (Figure 2). Incubations of 100 µL were conducted at the temperature of 37 °C. The pH of the incubation mixture was set at 7.4 using a potassium phosphate buffer (final concentration 50 mM). The total amount of CYP1A2 enzyme was 5 pmol, and the final concentration of substrate was 150 µM. Residual activity was determined by incubating the flavonoid (1 µM) with phenacetine as a substrate for 15 min, with or without preincubation, depending of the type of inhibition assay. Reactions were started by the addition of 15 µL of NADPH generating system, while the reactions were stopped by the addition of 1 mL 1% formic acid in acetonitrile. After centrifugation (10 min, 1900× g), the clear solution was transferred to a vial for HPLC analysis.
HPLC analysis was performed on Agilent 1100 instrument (Santa Clara, CA, USA) coupled with a diode array detector (DAD) on Luna C18 column (4.6 × 150 mm, 3 μm). The gradient method was used for separation. Mobile phase A consisted of water, acetonitrile, and glacial acetic acid in the volume ratio of 90:10:0.1, while mobile phase B contained the same solvents in the ratio 10:90:0.1. The following gradient timetable was used (t/min, %B): (0, 0), (2, 0), (13, 55), (14, 0), (20, 0). The flow rate was 1 mL/min, and chromatograms were recorded at 254 nm. Volume of incubation injected to the column was 15 µL. […] The amount of generated product (acetaminophen) was determined as the area under the curve based on the calibration curve of the standard.
(§2) Three types of experiments were conducted to determine metabolism dependent inhibition, time dependent inhibition, and direct inhibition of CYP1A2, CYP2A6, CYP2C8, and CYP2D6 enzymes.
(§3) To determine metabolism dependent inhibition (MDI assay), the flavonoid was first preincubated with the enzyme with the addition of the generating system for 30 min, after which the marker substrate was added to determine residual enzyme activity (as described above for each enzyme).
(§4) If metabolism dependent inhibition was determined, time dependent inhibition and direct inhibition were tested. Time dependent inhibition (TDI assay) was assessed by preincubating the flavonoid and enzyme, without the generating system, after which residual activity was determined by adding the NADPH generating system along with the substrate (as described above for each enzyme).
(§5) The direct inhibition assay (DI assay) was conducted without preincubation, i.e., the NADPH generating system was added to the incubation mixture containing flavonoid and substrate following the experimental set-up described above for each individual cytochrome P450 enzyme.
(§6) Pure time dependent inhibitors require time to interact with the enzyme. Thus, TDI inhibitors will show a reduction of enzyme activity in assays with preincubations, i.e., the MDI and TDI assays, but not in the DI assay (no preincubation). […] DI inhibitors will reduce enzyme activity in all three assays (MDI, TDI, and DI).
(§7) All incubations were conducted in triplicate. The results are expressed as the residual activity of the enzyme, i.e., the percentage of product generated in incubation with the addition of flavonoid in ratio to the control without flavonoid.

[2] = biological target: T2, CYP2A6 (Homo sapiens, UniProt P11509); test: CYP2A6 enzyme activity, coumarin 7-hydroxylation (MDI, TDI, DI assays), recombinant baculosomes
T2 sequence (P11509 1-494): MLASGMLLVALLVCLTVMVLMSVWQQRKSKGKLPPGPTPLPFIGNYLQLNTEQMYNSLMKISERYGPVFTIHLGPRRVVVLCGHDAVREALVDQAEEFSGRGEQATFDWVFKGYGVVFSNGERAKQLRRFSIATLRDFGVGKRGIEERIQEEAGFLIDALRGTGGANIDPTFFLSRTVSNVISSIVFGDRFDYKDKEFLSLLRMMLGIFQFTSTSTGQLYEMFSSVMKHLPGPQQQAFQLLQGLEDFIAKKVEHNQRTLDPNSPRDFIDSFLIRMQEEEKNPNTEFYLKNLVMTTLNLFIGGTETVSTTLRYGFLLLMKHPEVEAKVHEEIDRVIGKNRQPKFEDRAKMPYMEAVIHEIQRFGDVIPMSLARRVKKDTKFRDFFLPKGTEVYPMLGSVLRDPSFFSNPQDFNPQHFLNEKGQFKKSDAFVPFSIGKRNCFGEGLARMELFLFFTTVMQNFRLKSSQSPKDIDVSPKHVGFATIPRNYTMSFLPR
Description: as §1
The aromatic hydroxylation of coumarin at the position 7 was used as a marker reaction for CYP2A6. The incubation conditions were the same as for CYP1A2 enzyme (vide supra) unless otherwise stated. The final concentration of coumarin was 10 µM, while the incubation time was extended to 30 min.
HPLC-DAD analysis was conducted on the same system as the CYP1A2 enzyme with the following modifications: The gradient timetable (t/min, %B) was (0, 20), (1.5, 20), (10, 70), (11, 20), (17, 20), and the detection wavelength was 330 nm. The retention time of the substrate (coumarin) was 7.5 min, while the product (7-hydroxycoumarin) was detected at 4.8 min. The amount of generated product was determined as the area under the curve based on the calibration curve of the standard.
as §2, §3, §4, §5, §6
as §7, with “flavonoid. The statistical significance was tested with Student’s t-test in the program R (The R Project for Statistical Computing, Vienna, Austria).” for “flavonoid.”

[3] = tested on: CYP1A2; set-up: method as in ref 28 (Chang et al.); conditions: ref 28 (Chang et al.); read-out: Inhibition constant, competitive inhibition of CYP1A2-mediated 7-ethoxyresorufin O-dealkylation; cited from earlier work
[4] = tested on: CYP3A4; set-up: method as in PMID 30301254; conditions: statistical significance p < 0.1; cited from earlier work

Compound: COc1cc(-c2oc3cc(O)cc(O)c3c(=O)c2O)ccc1O [isorhamnetin]
- Inhibition of CYP1A2 activity ([1]; 1 µM flavonoid): inhibited
- Type of CYP1A2 inhibition ([1]; concluded from MDI, TDI, DI assays at 1 µM): reversible inhibitor
- activity at 15 min, 1 µM ([1]; human, pH 7.4): 8 ± 2%
- Inhibition of CYP2A6 enzyme activity ([2]; 1 µM flavonoid): inhibited
- inhibition at 30 min, 1 µM ([2]; human, pH 7.4): 16 ± 5%
- Ki [3]: 140 nM
- Inhibition of CYP3A4 metabolic activity [4]: inhibition
